Where two headings read alike, the source gives them in different places.
Assays:
[1] = known sweetener neotame; cited from earlier work
[2] = Solubility measurements in several solvent systems; assay type: physicochemical; details: for Solubility, 10:90 EtOH:H2 O: 10:90 Ethanol (EtOH):H2 O; for Solubility, 50:50 EtAc:Hexane: 50:50 Ethyl Acetate (EtAc):Hexane
Method: (§1) 25 grams of neotame was spread out equally on six containers and heated slowly past its melting point of about 82° C. until a temperature of about 92° C. was reached. […] Once 92° C. was reached, all of the neotame was melted. The containers containing the neotame were removed from the oven and allowed to cool to room temperature, about 23° C. The neotame was removed from the containers, and ground to a […] powder with a mortar and pestle. The x-ray diffraction pattern of the resulting amorphous neotame is illustrated in FIG. 1. Rates of dissolution and solubility measurements were then determined in several different solvent systems (deionized water; 0.1M phosphate (pH3) in water; 10:90 Ethanol (EtOH):H2 O; and 50:50 Ethyl Acetate (EtAc):Hexane) and compared to the conventional form of the neotame monohydrate.

[3] = Rate of dissolution compared to neotame monohydrate; assay type: physicochemical; details: in a variety of solvents commonly used in the food industry; FIG. 3 and FIG. 4 at 20° C.
Method: as §1, with “monohydrate. The solubility results are set forth below:” for “monohydrate.”
FIG. 3 illustrates a comparison of the dissolution of the amorphous neotame of Example 1 with neotame monohydrate in deionized water at 20° C. FIG. 4 illustrates a similar comparison in 0.1 M phosphate buffer.

[4] = Sweetening potency; details: amorphous neotame; "is believed to have"

solubility ([2]; 0.1 m phosphate, pH 3, 0.1M phosphate (pH3) in water, read-out: Solubility, 0.1 M Phosphate pH3) [mg/mL]	Solubility, 10:90 EtOH:H2 O [2]	Solubility, 50:50 EtAc:Hexane [2]	solubility ([2]; water, deionized water, read-out: Solubility, Water) [mg/mL]	rate of dissolution compared to that of the monohydrate form [3]	Solubility, 0.1 M Phosphate pH3 ([2]; 0.1M phosphate (pH3) in water)	Solubility, Water ([2]; deionized water)	solubility compared to that of the monohydrate form ([2]; in a variety of solvents commonly used in the food industry)	SMILES	sweetening potency relative to aspartame [1]	sweetening potency relative to sucrose [1]	sweetening potency relative to aspartame (believed) [4]
								COC(=O)[C@H](Cc1ccccc1)NC(=O)[C@H](CC(=O)O)NCCC(C)(C)C [Neotame, N-[N-(3,3-dimethylbutyl)-L-α-aspartyl]-L-phenylalanine 1-methyl ester]	about 40 times that of aspartame	about 8,000 times that of sucrose	
13.5	1.55 grams of neotame/100 grams sol	1.29 grams of neotame/100 grams sol	12.8					COC(=O)[C@H](Cc1ccccc1)NC(=O)[C@H](CC(=O)O)NCCC(C)(C)C [Neotame Monohydrate, N-[N-(3,3-dimethylbutyl)-L-α-aspartyl]-L-phenylalanine 1-methyl ester]			
	1.57 grams of neotame/100 grams sol	3.07 grams of neotame/100 grams sol		reduced rate of dissolution	1.49 grams of neotame/100 grams sol	1.35 grams of neotame/100 grams sol	higher solubility	COC(=O)[C@H](Cc1ccccc1)NC(=O)[C@H](CC(=O)O)NCCC(C)(C)C [Example 1, amorphous N-[N-(3,3-dimethylbutyl)-L-α-aspartyl]-L-phenylalanine 1-methyl ester]			around 40 times that of aspartame

— patent US6331646A, “Amorphous N-[N-(3,3-dimethylbutyl)-L-α-aspartyl]-L-phenylalanine 1-methyl ester” (The NutraSweet Co., priority 1999, dated 2001)
